From patent US8058444B2, “Heterocycle-substituted pyridine derivative's salt or crystal thereof” (Eisai R&D Management Co., Ltd., priority 2007, dated 2011)
Structures can show the parent of a compound that is named as a salt.

Test system: C. albicans E81022 strain
Experiment: Experimental systemic candidal infection model in mice
Format: in vivo
Settings: peroral (into the stomach), female ICR mice infected i.v. with C. albicans E81022, observed until 14 days after infection
Experimental: 1. Experimental Systemic Candidal Infection Model in Mice
A standing culture of C. albicans E81022 strain was carried out for 48 hours at 30° C in sabouraud dextrose agar medium (SDA), the recovered fungal cells were suspended in sterilized physiological saline. By counting the fungal number on cytometry plate, the suspension was diluted to 2×10^7 cells/mL with sterilized physiological saline to serve fungal inoculum.
The fungal inoculum was used in the amounts of 0.2 mL to inoculate 4.5 to 5.5 week-old female ICR mice in the tail vein (4×10^6 cells/mouse).
From 0.5 and 1 hours after fungal inoculation, 0.2 mL of agent solution (compound of Reference Example 1 dissolved to 5 mg/ml in 50 mM hydrochloric acid, diluted suitably in sterile water, and then, diluted 10-fold in 5% fructose solution) was administered into the stomach using a peroral probe twice every 6 hours. […]
The protective effect was determined by observing lifeldeath until 14 days after infection and calculating the mean survival days.

## Nc1ncccc1-c1cc(Cc2ccc(COc3ccccn3)cc2)no1 [Hydrochloride of Reference Example 1, 3-(3-(4-(Pyridin-2-yloxymethyl)-benzyl)-isoxazol-5-yl)-pyridin-2-yl amine]
2.5 mg/kg
  Mean Survival Days: 11.0 days
5 mg/kg
  Mean Survival Days: 13.4 days
